Measured values reported in US20220050096A1, “ANALYTE-SENSITIVE PROBES AND CONTACT LENS FOR DIAGNOSIS OF OCULAR PATHOLOGIES” (University Of Maryland, Baltimore, priority 2020, published 2022).
Like-named read-outs stand apart in the source and are kept apart here.

Legend:
[1] = Chloride quenching (Stern-Volmer) of SPQ-C18 in contact lenses; assay type: physicochemical
Description: Quenching by Chloride. […] The intensities (I) and lifetimes (6) are analyzed using the Stern-Volmer equation, where F0 and τ0 are the intensities and lifetimes in the absence of chloride, and K is the quenching constant and the inverse of the [Cl^-] needed for 50% quenching. For collisional quenching, the value of F0/F and τ0/τ are typically the same. In solution, in the absence of lenses, the value of K=kq τ0 can be used to calculate the biomolecular quenching constant kq and the quenching efficiency. In the lenses, the [Cl-] may not be the same as in the bulk solution, but kq in the lenses is estimated by assuming the same concentration of chloride around the SPQ moiety in the lenses and in bulk solutions. Chloride-sensitive lenses were prepared using SPQ-C18. The quinolinium moiety in SPQ-C18 can be used for chloride sensing in tears. Its unquenched lifetime near 18.5 ns (see Table 14 and Table 15, below) which results in significant changes up to chloride concentrations of 220 mM, which is well above the physiological range. BiofinityTM and […] lenses labeled with SPQ-C18 were both found to display significant quenching at physiological concentrations of chloride near 120 mM. The emission intensities of SPQ-C18 were quenched by about 50% at this chloride concentration (FIG. 31 and FIG. 32). The emission spectra are not changed by quenching so intensity-based sensing may be different in a realworld application. […] Chloride quenching was analyzed using the Stern-Volmer equation for intensities and lifetimes (equations 7 and 8). In this analysis, we used the average lifetimes (equation 2) that is more appropriate for quenching. […] In contrast quenching of SP-PL, both intensity and lifetime, continue to decrease as the chloride concentration is increased. At the molecular level, the most interesting term is the biomolecular quenching constant kq. This value can be understood by comparison with quenching of a fluorophore in solution without any steric barriers. […] This approach for SPQ-C18 in lenses is shown in both intensities and amplitude-weighted lifetimes (FIG. 35A and FIG. 35B). […] This behavior is different from SG-PL where the binding site can be saturated at high Na^+ concentrations. In contrast, quenching of OD-MQB, both intensity and lifetime, continue to decrease as the chloride concentration increased. The steady-state intensities and intensity decays can be used to calculate the bimolecular quenching constant kq. This value can be interpreted by comparison with quenching of a fluorophore in solution without any steric barriers. […] This is the same structure of SPQ-C18 but with a shorter, three carbon propenyl chain. The unquenched lifetime (τ0) of P-MQB was 26 ns, and the Stern-Volmer constant K was 140 M^-1. […] Emission spectra and time-dependent decays were obtained (data not shown). Stern-Volmer plots were obtained in water and in a Stenfilcon A (AspireTM) contact lens by plotting the normalized intensities with respect to the added chloride concentrations.

[2] = cited from earlier work; for Kd: read-out: K (mM), binding constant
[3] = Stenfilcon A (Aspire™) contact lens

SMILES	reduction of quenching constant, in lens versus SPQ-C3 in buffer [1] [fold]	k (bimolecular quenching constant) ([1]; Biofinity)	quenching constant K from lifetime measurement ([1]; Biofinity) [M⁻¹]	k (bimolecular quenching constant) ([1]; MyDay)	quenching constant K from lifetime measurement ([1]; MyDay) [M⁻¹]	bimolecular quenching constant [1, 3] [M⁻¹ s⁻¹]	decrease in the collision rate versus SPQ-C3 in water [1, 3]	quenching of emission intensities ([1]; chloride near 120 mM, Biofinity and MyDay)	unquenched lifetime ([1]; in lenses) [ns]	Lifetime (ns), cation-bound form ([2]; cation-bound form (in parentheses)) [ns]	Lifetime (ns), free form ([2]; free form) [ns]	Kd ([2]; listed as Na Green) [mM]	Kd ([2]; listed as Sodium Green) [mM]	Kd [2] [mM]
CCCCCCCCCCCCCCCCCC[n+]1cccc2cc(OC)ccc21 [SPQ-C18, N-Octadecyl-6-methoxyquinolinium bromide]	10	0.41×10^9 m-1 sec-1	8.12	0.37×10^9 m-1 sec-1	7.44	1e+09	5.4	about 50%	~18.5	–	–	–	–	–
COc1cc(N2CCOCCOCCN(c3cc(OC)c(NC(=O)c4ccc(-c5c6cc(Cl)c(=O)cc-6oc6cc([O-])c(Cl)cc56)c(C(=O)[O-])c4)cc3OC)CCOCC2)c(OC)cc1NC(=O)c1ccc(-c2c3cc(Cl)c(=O)cc-3oc3cc([O-])c(Cl)cc23)c(C(=O)[O-])c1.C[N+](C)(C)C.C[N+](C)(C)C.C[N+](C)(C)C.C[N+](C)(C)C [SG]	–	–	–	–	–	–	–	–	–	2.38	3.34	6	~5	6 to 10
